# Results published in the supplement of paper PMC10307832.
# What was measured:
# Experiment in all cases: relative viability (nuclei count vs DMSO), 5 days (fraction); higher = more cells survive
# NCI-H650 = system: NCI-H650
# Summary of the method: (§1)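 Relative viability equals treated-well nuclei counts divided by vehicle-well nuclei counts. Counts came from 4× images of lung cancer cell lines grown in 1536-well plates for 5 days after pin-tool dosing on the day after seeding. Dosing used one drug alone or a fixed anchor-drug dose plus five library-drug doses (not always all listed) in √10 steps, and values are medians of duplicate plates.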
# NCI-H1651 = system: NCI-H1651
# Summary of the method: as §1
# HOP-62 = system: HOP-62
# Summary of the method: as §1
# COR-L23 = system: COR-L23
# Summary of the method: as §1
# NCI-H2023 = system: NCI-H2023
# Summary of the method: as §1
# EPLC-272H = system: EPLC-272H
# Summary of the method: as §1
# UMC-11 = system: UMC-11
# Summary of the method: as §1
# PC-14 = system: PC-14
# Summary of the method: as §1
# NCI-H2085 = system: NCI-H2085
# Summary of the method: as §1
# SW 1573 = system: SW 1573
# Summary of the method: as §1
# HARA = system: HARA
# Summary of the method: as §1
# NCI-H838 = system: NCI-H838
# Summary of the method: as §1
# NCI-H2126 = system: NCI-H2126
# Summary of the method: as §1
# LU99A = system: LU99A
# Summary of the method: as §1
# NCI-H1993 = system: NCI-H1993
# Summary of the method: as §1
# NCI-H1355 = system: NCI-H1355
# Summary of the method: as §1
# ABC-1 = system: ABC-1
# Summary of the method: as §1
# LC-2-ad = system: LC-2-ad
# Summary of the method: as §1
# NCI-H1915 = system: NCI-H1915
# Summary of the method: as §1
# NCI-H2347 = system: NCI-H2347
# Summary of the method: as §1
# HCC-44 = system: HCC-44
# Summary of the method: as §1
# NCI-H358 = system: NCI-H358
# Summary of the method: as §1
# HCC-15 = system: HCC-15
# Summary of the method: as §1
compound,measurement,setting,value
O=c1cc(N2CCOCC2)oc2c(-c3cccc4c3sc3ccccc34)cccc12 + Cc1cc(Nc2cc(N3CCN(C)CC3)nc(Sc3ccc(NC(=O)C4CC4)cc3)n2)n[nH]1 [Tozasertib] (partner 0.1 µM),relative viability,NCI-H650; first compound 0.03162 µM,0.763
same,relative viability,NCI-H650; first compound 0.1 µM,0.701
same,relative viability,NCI-H650; first compound 0.3162 µM,0.803
same,relative viability,NCI-H650; first compound 1 µM,0.704
same,relative viability,NCI-H1651; first compound 0.01 µM,0.687
same,relative viability,NCI-H1651; first compound 0.03162 µM,0.848
same,relative viability,NCI-H1651; first compound 0.1 µM,0.844
same,relative viability,NCI-H1651; first compound 0.3162 µM,0.72
same,relative viability,NCI-H1651; first compound 1 µM,0.751
same,relative viability,HOP-62; first compound 0.01 µM,0.336
same,relative viability,HOP-62; first compound 0.03162 µM,0.315
same,relative viability,HOP-62; first compound 0.1 µM,0.402
same,relative viability,HOP-62; first compound 0.3162 µM,0.325
same,relative viability,HOP-62; first compound 1 µM,0.382
same,relative viability,COR-L23; first compound 0.01 µM,0.213
same,relative viability,COR-L23; first compound 0.03162 µM,0.231
same,relative viability,COR-L23; first compound 0.1 µM,0.18
same,relative viability,COR-L23; first compound 0.3162 µM,0.234
same,relative viability,COR-L23; first compound 1 µM,0.225
same,relative viability,NCI-H2023; first compound 0.01 µM,0.353
same,relative viability,NCI-H2023; first compound 0.03162 µM,0.402
same,relative viability,NCI-H2023; first compound 0.1 µM,0.438
same,relative viability,NCI-H2023; first compound 0.3162 µM,0.359
same,relative viability,NCI-H2023; first compound 1 µM,0.373
same,relative viability,EPLC-272H; first compound 0.01 µM,0.288
same,relative viability,EPLC-272H; first compound 0.03162 µM,0.327
same,relative viability,EPLC-272H; first compound 0.3162 µM,0.206
same,relative viability,EPLC-272H; first compound 1 µM,0.253
same,relative viability,UMC-11; first compound 0.01 µM,0.194
same,relative viability,UMC-11; first compound 0.03162 µM,0.208
same,relative viability,UMC-11; first compound 0.1 µM,0.202
same,relative viability,UMC-11; first compound 0.3162 µM,0.209
same,relative viability,UMC-11; first compound 1 µM,0.202
same,relative viability,PC-14; first compound 0.01 µM,0.567
same,relative viability,PC-14; first compound 0.03162 µM,0.572
same,relative viability,PC-14; first compound 0.1 µM,0.575
same,relative viability,PC-14; first compound 0.3162 µM,0.535
same,relative viability,PC-14; first compound 1 µM,0.577
same,relative viability,NCI-H2085; first compound 0.01 µM,0.841
same,relative viability,NCI-H2085; first compound 0.03162 µM,0.813
same,relative viability,NCI-H2085; first compound 0.1 µM,0.741
same,relative viability,NCI-H2085; first compound 0.3162 µM,0.73
same,relative viability,NCI-H2085; first compound 1 µM,0.77
same,relative viability,SW 1573; first compound 0.01 µM,0.198
same,relative viability,SW 1573; first compound 0.03162 µM,0.159
same,relative viability,SW 1573; first compound 0.1 µM,0.164
same,relative viability,SW 1573; first compound 0.3162 µM,0.157
same,relative viability,SW 1573; first compound 1 µM,0.166
same,relative viability,HARA; first compound 0.01 µM,0.139
same,relative viability,HARA; first compound 0.03162 µM,0.139
same,relative viability,HARA; first compound 0.1 µM,0.477
same,relative viability,HARA; first compound 0.3162 µM,0.103
same,relative viability,HARA; first compound 1 µM,0.128
same,relative viability,NCI-H838; first compound 0.01 µM,0.246
same,relative viability,NCI-H838; first compound 0.03162 µM,0.273
same,relative viability,NCI-H838; first compound 0.1 µM,0.27
same,relative viability,NCI-H838; first compound 0.3162 µM,0.298
same,relative viability,NCI-H838; first compound 1 µM,0.237
same,relative viability,NCI-H2126; first compound 0.01 µM,0.781
same,relative viability,NCI-H2126; first compound 0.03162 µM,0.839
same,relative viability,NCI-H2126; first compound 0.1 µM,0.839
same,relative viability,NCI-H2126; first compound 0.3162 µM,0.794
same,relative viability,NCI-H2126; first compound 1 µM,0.789
same,relative viability,LU99A; first compound 0.01 µM,0.262
same,relative viability,LU99A; first compound 0.03162 µM,0.279
same,relative viability,LU99A; first compound 0.1 µM,0.273
same,relative viability,LU99A; first compound 0.3162 µM,0.303
same,relative viability,LU99A; first compound 1 µM,0.267
same,relative viability,NCI-H1993; first compound 0.01 µM,0.554
same,relative viability,NCI-H1993; first compound 0.03162 µM,0.581
same,relative viability,NCI-H1993; first compound 0.1 µM,0.569
same,relative viability,NCI-H1993; first compound 0.3162 µM,0.566
same,relative viability,NCI-H1993; first compound 1 µM,0.62
same,relative viability,NCI-H1355; first compound 0.01 µM,0.545
same,relative viability,NCI-H1355; first compound 0.03162 µM,0.59
same,relative viability,NCI-H1355; first compound 0.1 µM,0.552
same,relative viability,NCI-H1355; first compound 0.3162 µM,0.55
same,relative viability,NCI-H1355; first compound 1 µM,0.514
same,relative viability,ABC-1; first compound 0.01 µM,0.186
same,relative viability,ABC-1; first compound 0.03162 µM,0.178
same,relative viability,ABC-1; first compound 0.1 µM,0.222
same,relative viability,ABC-1; first compound 0.3162 µM,0.21
same,relative viability,ABC-1; first compound 1 µM,0.164
same,relative viability,LC-2-ad; first compound 0.01 µM,0.486
same,relative viability,LC-2-ad; first compound 0.03162 µM,0.46
same,relative viability,LC-2-ad; first compound 0.1 µM,0.478
same,relative viability,LC-2-ad; first compound 0.3162 µM,0.443
same,relative viability,LC-2-ad; first compound 1 µM,0.445
same,relative viability,NCI-H1915; first compound 0.01 µM,0.419
same,relative viability,NCI-H1915; first compound 0.03162 µM,0.438
same,relative viability,NCI-H1915; first compound 0.1 µM,0.485
same,relative viability,NCI-H1915; first compound 0.3162 µM,0.456
same,relative viability,NCI-H1915; first compound 1 µM,0.422
same,relative viability,NCI-H2347; first compound 0.01 µM,0.618
same,relative viability,NCI-H2347; first compound 0.03162 µM,0.599
same,relative viability,NCI-H2347; first compound 0.1 µM,0.538
same,relative viability,NCI-H2347; first compound 0.3162 µM,0.526
same,relative viability,NCI-H2347; first compound 1 µM,0.549
same,relative viability,HCC-44; first compound 0.01 µM,0.846
same,relative viability,HCC-44; first compound 0.03162 µM,1.05
same,relative viability,HCC-44; first compound 0.1 µM,1.12
same,relative viability,HCC-44; first compound 0.3162 µM,0.876
same,relative viability,HCC-44; first compound 1 µM,0.91
same,relative viability,NCI-H358; first compound 0.01 µM,0.113
same,relative viability,NCI-H358; first compound 0.03162 µM,0.102
same,relative viability,NCI-H358; first compound 0.1 µM,0.115
same,relative viability,NCI-H358; first compound 0.3162 µM,0.0946
same,relative viability,NCI-H358; first compound 1 µM,0.101
same,relative viability,HCC-15; first compound 0.01 µM,0.413
same,relative viability,HCC-15; first compound 0.03162 µM,0.379
same,relative viability,HCC-15; first compound 0.1 µM,0.433
same,relative viability,HCC-15; first compound 0.3162 µM,0.33
same,relative viability,HCC-15; first compound 1 µM,0.448
